Laboratory results: BindingDB's records for doi:10.7270/Q26T0K2P (Nmmlsc, 2010)

Molecular target: T1, Regulator of G-protein signaling 19 (Homo sapiens, UniProt P49795)
T1 sequence (P49795 whole entry): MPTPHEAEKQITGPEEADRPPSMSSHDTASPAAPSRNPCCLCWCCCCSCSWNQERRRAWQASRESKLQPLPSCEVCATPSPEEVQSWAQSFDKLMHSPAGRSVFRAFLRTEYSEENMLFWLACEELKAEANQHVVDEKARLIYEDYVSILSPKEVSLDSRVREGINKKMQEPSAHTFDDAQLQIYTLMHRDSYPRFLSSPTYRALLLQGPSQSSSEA
Assay: RGS19-Galphao binding modulators, analog potency, SAR follow-up, biochemical, SAR compounds, multiplexed bead flow cytometry (AID 2311)

NS(=O)(=O)c1ccc(N=NCc2ccc(O)c(O)c2O)c([N+](=O)[O-])c1 [4-[[(E)-(2,3-dihydroxy-4-oxo-1-cyclohexa-2,5-dienylidene)methyl]hydrazo]-3-nitrobenzenesulfonamide]
Ki: 100 nM
